In patent US20020099086A1, “Use of extracts from aristolochia in the treatment of AIDS” (PROTEOME SCIENCES PLC, priority 1998, published 2002):

How the values were obtained:
opiate mu receptor = opiate mu receptor (Homo sapiens, UniProt P35372); assay: Interaction with neurotransmitter receptors; type: binding
dopamine receptors = assay: Interaction with neurotransmitter receptors; type: binding
GABA receptors = assay: Interaction with neurotransmitter receptors; type: binding
serotonin receptors = assay: Interaction with neurotransmitter receptors; type: binding
[1] = test system: remaining receptors of twenty seven common receptor types; assay: Interaction with neurotransmitter receptors; type: binding; conditions: twenty seven common receptor types tested
Parkinsonism = conditions: disclosed in U.S. Pat. No. 4782077; cited from earlier work

opiate mu receptor, sequence (P35372 whole entry): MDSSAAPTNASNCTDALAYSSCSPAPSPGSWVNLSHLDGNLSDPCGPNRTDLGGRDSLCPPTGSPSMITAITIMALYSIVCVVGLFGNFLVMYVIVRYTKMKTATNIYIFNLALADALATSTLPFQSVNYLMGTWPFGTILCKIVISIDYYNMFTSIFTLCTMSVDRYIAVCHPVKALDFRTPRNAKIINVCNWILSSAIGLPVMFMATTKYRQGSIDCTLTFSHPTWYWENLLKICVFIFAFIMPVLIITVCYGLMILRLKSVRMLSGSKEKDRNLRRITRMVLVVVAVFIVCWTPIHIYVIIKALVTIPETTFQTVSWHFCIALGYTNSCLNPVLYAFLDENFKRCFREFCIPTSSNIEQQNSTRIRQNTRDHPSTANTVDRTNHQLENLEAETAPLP

Substance: Taliscanine [Taliscanine (5)]
- inhibition, opiate mu receptor (opiate mu receptor): 50%
- activity at the dopamine receptors (dopamine receptors): negligible activity
- activity at the GABA receptors (GABA receptors): negligible activity
- activity at the serotonin receptors (serotonin receptors): negligible activity
- levels of inhibition with the remaining receptors [1]: very poor levels of inhibition
- symptoms of Parkinsonism and related neurological disorders (Parkinsonism): alleviates the symptoms of Parkinsonism and related neurological disorders
